From patent US7022836B2, “Methods for producing and transforming cassava protoplasts” (National Starch and Chemical Investment Holding Corporation, priority 1999, dated 2006)
Marks after values point to notes of the source that are not given here.

System: cassava leaf explants
Test: Primary somatic embryogenesis from leaf explants (mature embryos per cultured leaf explant)
Assay type: cell-based
Settings: for leaf explants that formed ME / number of ME/CLE: maximum
Method: The procedure to obtain FEC is outlined in FIG. 1. 1t starts with the induction of primary embryos. Primary embryos are formed in a two step procedure. In the first step explants are cultured on medium supplemented with salts and vitamins (preferably Murashige and Skoog (1962)), a carbohydrate source (for example 20 g/l sucrose) and an auxin (e.g. 1–8 mg/l picloram, or dicamba or 2,4-D) for the initiation of embryos. After 10 to 15 days on this first medium bipolar torpedo shaped embryos are formed. […] After transfer of the explants with torpedo shaped embryos to a step 2 medium (the same medium as step 1 but without an auxin, with eventually the addition of cytokinins) the torpedo shaped embryos become mature.
In the presently used protocol there is genotypic variation in the number of mature embryos formed per cultured explant. The genotypes M.Col1505, M.Col22 and Gading gave the highest numbers of mature embryos per cultured leaf explant (ME/CLE). However, the number of mature embryos formed was low. In M.Col22 a maximum of 22% of the leaf explants isolated from in vitro grown plants and cultured on a step 1 medium with 4 mg/l 2,4-D, formed ME with a maximum number of 0.8 ME/CLE. On a step 1 medium with 8 mg/l 2,4-D a maximum of 49% of the leaf explants formed ME with a maximum number of 3.5 ME/CLE.
Mathews et al. (1993) improved the efficiency of primary embryogenesis in the genotype M.Co11505 by transferring explants after 15 days of step 1 medium to a growth regulator-free medium supplemented with 0.5% charcoal. On this medium maturation was improved and as a result the number of mature embryos increased from 0.4 in the control to 3,4 ME/CLE. The best results were obtained if donor plants were pretreated with auxins as 2,4-D or picloram or Dicamba. For this, plants were grown in liquid MS20 medium and supplied with the auxin (final concentration 8 mg/l) after 12 days of growth. Two days later leaf explants were isolated of the donor plants and cultured on step 1 medium with 8 mg/l 2,4-D, picloram or Dicamba.

[1] = M.Col22, step 1 medium with 4 mg/l 2,4-D
[2] = M.Col22, step 1 medium with 8 mg/l 2,4-D

O=C(O)COc1ccc(Cl)cc1Cl [2,4-D, 2,4-dichlorophenoxyacetic acid]
leaf explants that formed ME [1]: ≤ 22% | number of ME/CLE [1]: ≤ 0.8 ME/CLE | leaf explants that formed ME [2]: ≤ 49% | number of ME/CLE [2]: ≤ 3.5 ME/CLE | primary mature embryos per cultured leaf explant after 2,4-D pretreatment (genotype M.Col22, pretreatment yes): 9.4 # mature embryos per cultured leaf explant | primary mature embryos per cultured leaf explant after 2,4-D pretreatment (genotype TMS 4(2)1244, pretreatment yes): 0 # mature embryos per cultured leaf explant | primary mature embryos per cultured leaf explant after 2,4-D pretreatment (genotype TMS 30001, pretreatment yes): 0 # mature embryos per cultured leaf explant | primary mature embryos per cultured leaf explant after 2,4-D pretreatment (genotype TMS 30211, pretreatment yes): 0 # mature embryos per cultured leaf explant | primary mature embryos per cultured leaf explant after 2,4-D pretreatment (genotype TMS 30395, pretreatment yes): 0.1 # mature embryos per cultured leaf explant | primary mature embryos per cultured leaf explant after 2,4-D pretreatment (genotype TMS 30555, pretreatment yes): 0.7 # mature embryos per cultured leaf explant | primary mature embryos per cultured leaf explant after 2,4-D pretreatment (genotype TMS 30572, pretreatment yes): 0 # mature embryos per cultured leaf explant | primary mature embryos per cultured leaf explant after 2,4-D pretreatment (genotype TMS 50395, pretreatment yes): <0.1 # mature embryos per cultured leaf explant | primary mature embryos per cultured leaf explant after 2,4-D pretreatment (genotype TMS 60444, pretreatment yes): 1.1 # mature embryos per cultured leaf explant | primary mature embryos per cultured leaf explant after 2,4-D pretreatment (genotype TMS 60506, pretreatment yes): <0.1 # mature embryos per cultured leaf explant | primary mature embryos per cultured leaf explant after 2,4-D pretreatment (genotype TMS 90059, pretreatment yes): <0.1 # mature embryos per cultured leaf explant | primary mature embryos per cultured leaf explant after 2,4-D pretreatment (genotype TMS 90853, pretreatment yes): 0.2 # mature embryos per cultured leaf explant
